The text below walks through data of patent US12617799B2, “Pyrazolopyrimidinone compounds” (Orphagen Pharmaceuticals, Inc., priority 2021, dated 2026).

One test concerns the target T1, human SF-1 (Homo sapiens, UniProt Q13285).
T1 construct: expressed in transfected cells; host or cells: CHO-K1 cells (Chinese hamster ovary), transient cotransfection with pG5luc
As to the kind of experiment: SF-1 Luc assay (Gal4DBD-SF-1LBD luciferase reporter in transfected CHO-K1 cells). The class given is cell-based. The note with it: CHO-K1 cells transfected with GAL4-SF-1 plasmid, 40 hours incubation; read-out: hSF-1-Luc: EC50. An excerpt: BamHI and XbaI sites introduced by the primers […] (forward) and […] (reverse) were used for subcloning the amplicon into pFA-CMV.
Cells were routinely cultured by splitting them from 1:10 to 1:20. […] Four hours after transfection, cells were trypsinized and suspended to a concentration of 1.6×10^5 cells/ml in supplemented Ham's F-12 media.
Assays: The collected cells were resuspended in the culture medium and plated into a 384 well-white plate (Corning Life Sciences, Acton, MA) at 8,000 cells/50 μL/well.
Measurement of SF-1 Transcriptional Activity: SF-1 transcriptional activity was detected as the intracellular Luc activity using SteadyLite Plus HTS Reporter Gene Assay System. After the measurement of the cell viability, the culture media in the 384 well-plate were completely removed. Then, 30 μL of the Luc substrate solution was added into each well and incubated for 10 min at room temperature. After the incubation, luminescence of each well was measured by a microplate reader.
Calculation of the SF-1 Transcriptional Activity (% of Control): The % of control for the transcriptional activity was calculated according to the following equation: % of control=A/B×100 Equation • A: luminescence count in the test article-treated CHO cells transfected with GAL4-SF-1 plasmid • B: mean luminescence count in the vehicle-treated CHO cells transfected with GAL4-SF-1 plasmid
For orientation: Reporter assays use an easily measured gene product as a stand-in for the process of interest.

Test [1] has as its system rat Leydig tumor cell line R2C. As to the kind of experiment: R2C proliferation assay for SF-1 antagonists (EdU incorporation). Type of test: cell-based. The note with it: read-out: R2C: EC50. The procedure:
SF-1 regulates progenitor cell formation and survival in adult Leydig cells. Anti-proliferative effects of SF-1 antagonists using a SF-1+ rat Leydig tumor cell line, R2C, was investigated. Cell proliferation was measured by detecting DNA incorporation of EdU, a nucleoside analogue that can be fluorescently tagged after cell fixation.
Proliferation of the rat Leydig tumor cell line R2C (ATCC® CCL-97™) was assessed using 5-ethynyl-2′-deoxyuridine (EdU), a nucleoside analogue incorporated during DNA synthesis that can be fluorescently tagged after cell fixation. Cycloheximide, a protein synthesis inhibitor, was used as a positive control for the assay.
R2C cells are maintained according to a protocol provided by the American Type Culture Collection (ATCC). At the time of assay, R2C cells were diluted to 1.0 million cells/mL with culture medium (F12 medium supplemented with 2% FBS and 1% Penicillin-Streptomycin) and 50 uL of cell suspension seeded into each well of 384-well clear bottom plates. The assay plates were incubated in a humidified, 37° C., 6% CO2 atmosphere for 24 hours. Serially diluted SF-1 antagonists, cycloheximide or vehicle (DMSO) were then applied to the R2C cells and incubated in a humidified, 37° C., 6% CO2 atmosphere for two days. EdU (Invitrogen), at a final concentration of 5 μM, was added to the cells and incubated for an additional 16 hours, after which cells were fixed with 10% formalin.
Cells were then washed and permeabilized in 0.5% TritonX-100/PBS solution at RT for 1 hour. EdU incorporation was detected by labeling EdU with 6-FAM azide (Lumiprobe) using a copper (I)-catalyzed Click reaction between an azide and alkyne. The reaction mixture consists of 5 mM ascorbic acid, 1 mM CuSO4, 1 μM 6-FAM azide dissolved in PBS buffer. […] For data normalization, the average fluorescence of DMSO wells was defined as 100%, and average fluorescence of 10 μM cycloheximide wells was defined as 0%. Curve fitting and EC50 determination were performed using the variable slope sigmoidal dose-response analysis.
R2C cells were routinely cultured in R2C culture medium. To assay SF-1 antagonist inhibitory activity, R2C cells were resuspended in the R2C plating medium and plated into a 384 well-clear bottom black plate at 20,000 cells/50 μL/well. […] 10 μL EdU plating solution were then dispensed into each well of assay plate incubated at 37° C., 6% CO2 for two days.
R2C proliferation is measured by detecting the fluorescent labelled EdU. The R2C assay plates were fixed by dispense 60 μL of 10% formalin into each well, and the plates were incubated at room temperature for 1 hour on an orbital shaker. The plates were washed with 80 μL of PBS three times, and cells were permeabilized by treating with 100 μL of PBS-0.5% TritonX-100 at RT for 1 hour on an orbital shaker. The plates were washed with 80 μL of PBS three times, and after the last wash, 25 μL of PBS was dispensed into each well. 25 μL of 2× mounting mix solution was then added into each well of fixed cells, and the plates were incubated at RT for 30 min in the dark on an orbital shaker. The cells were washed with 80 μL of PBS, three times, and after the last wash, 25 μL of PBS was dispensed into each well. […] The cells were washed with 80 μL of PBS, three times, and after the last wash, 50 μL of PBS was dispensed into each well. Assay plates were sealed with aluminum foil, and fluorescence was measured using a Envision microplate reader.
The % of control for the proliferation activity was calculated according to the following equation: % of control=100×(A−C)/(B−C) Equation • A: fluorescence count in the test article-treated R2C cells • B: mean fluorescence count in the vehicle-treated R2C cells • C: mean fluorescence count in the 10 μM cycloheximide-treated R2C cells

Like-named read-outs stand apart in the source and are kept apart here. Some results are limits rather than exact numbers.

T1 sequence (Q13285 198-461 limits assumed): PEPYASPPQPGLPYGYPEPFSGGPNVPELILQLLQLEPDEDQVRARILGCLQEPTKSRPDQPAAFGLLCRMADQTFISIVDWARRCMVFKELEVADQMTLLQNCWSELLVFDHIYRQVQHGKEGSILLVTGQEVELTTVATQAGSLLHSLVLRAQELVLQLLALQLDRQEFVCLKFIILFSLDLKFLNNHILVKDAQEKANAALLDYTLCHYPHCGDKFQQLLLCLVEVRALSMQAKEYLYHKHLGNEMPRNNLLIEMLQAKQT

For the compound `C[C@H](CO)Oc1ccc(NC(=O)Cn2cnc3c(Nc4ccc(C(F)(F)F)cc4)nn(C)c3c2=O)cc1` (single isomer, unassigned) [Compound 25], the EC50 on human SF-1 is less than 200 nM; in test [1] (R2C cells, EdU incorporation), less than 200 nM.

For `C[C@@H](CO)Oc1ccc(NC(=O)Cn2cnc3c(Nc4ccc(C(F)(F)F)cc4)nn(C)c3c2=O)cc1` (single isomer, unassigned) [Compound 26], the EC50 at human SF-1 is less than 200 nM; in test [1] (R2C cells, EdU incorporation), less than 200 nM.

With `Cn1nc(Nc2ccc(C(F)(F)F)cc2)c2ncn(CC(=O)N[C@H]3CCC[C@H](OC(F)F)C3)c(=O)c21` (single isomer, unassigned) [Compound 43], the EC50 (at human SF-1; in test [1] (R2C)) was less than 200 nM throughout.

On to `Cn1nc(Nc2ccc(C(F)(F)F)cc2)c2ncn(CC(=O)N[C@@H]3CCC[C@@H](OC(F)F)C3)c(=O)c21` (single isomer, unassigned) [Compound 44], for which the EC50 (at human SF-1; in test [1] (R2C)) was less than 200 nM throughout.

On to `Cn1nc(Nc2ccc(C(F)(F)F)cc2)c2ncn(CC(=O)N[C@H]3CCC[C@@H](OC(F)F)C3)c(=O)c21` (single isomer, unassigned) [Compound 48], for which the EC50 (on human SF-1; in test [1] (R2C)) was less than 200 nM throughout.

On to `Cn1nc(Nc2ccc(C(F)(F)F)cc2)c2ncn(CC(=O)N[C@@H]3CCC[C@H](OC(F)F)C3)c(=O)c21` (single isomer, unassigned) [Compound 49], for which the EC50 (on human SF-1; in test [1] (R2C)) was less than 200 nM each time.

Turning to `COc1ccc(NC(=O)Cn2cnc3c(Nc4ccc(C(F)(F)F)cc4)nn(C)c3c2=O)cc1F` [Compound 11, N-(3-fluoro-4-methoxyphenyl)-2-(1-methyl-7-oxo-3-((4-(trifluoromethyl)phenyl)amino)-1,7-dihydro-6H-pyrazolo[4,3-d]pyrimidin-6-yl)acetamide], the EC50 was less than 200 nM at human SF-1 and less than 200 nM in test [1] (R2C cells, EdU incorporation).

Take `Cn1nc(Nc2ccc(C(F)(F)F)cc2)c2ncn(CC(=O)Nc3ccc(C(C)(C)S(C)(=O)=O)cc3)c(=O)c21` [Compound 12, 2-(1-methyl-7-oxo-3-((4-(trifluoromethyl)phenyl)amino)-1,7-dihydro-6H-pyrazolo[4,3-d]pyrimidin-6-yl)-N-(4-(2-(methylsulfonyl)propan-2-yl)phenyl)acetamide]: the EC50 at human SF-1 is less than 200 nM; in test [1] (R2C cells, EdU incorporation) it was less than 200 nM.

In the case of `Cn1nc(Nc2ccc(C(F)(F)F)cc2)c2ncn(CC(=O)NC3CCOCC3)c(=O)c21` [Compound 13, 2-(1-methyl-7-oxo-3-((4-(trifluoromethyl)phenyl)amino)-1,7-dihydro-6H-pyrazolo[4,3-d]pyrimidin-6-yl)-N-(tetrahydro-2H-pyran-4-yl)acetamide], the half-maximal effective concentration (EC50) at human SF-1 was less than 200 nM; in test [1] (R2C cells, EdU incorporation) it was 200 to 1000 nM.

Turning to `Cn1nc(Nc2ccc(C(F)(F)F)cc2)c2ncn(CC(=O)NCC3CCOCC3)c(=O)c21` [Compound 14, 2-(1-methyl-7-oxo-3-((4-(trifluoromethyl)phenyl)amino)-1,7-dihydro-6H-pyrazolo[4,3-d]pyrimidin-6-yl)-N-((tetrahydro-2H-pyran-4-yl)methyl)acetamide], the EC50 at human SF-1 was less than 200 nM; in test [1] (R2C cells, EdU incorporation), 200 to 1000 nM.

For `Cn1nc(Nc2ccc(C(F)(F)F)cc2)c2ncn(CC(=O)NC(C)(C)C3CCOCC3)c(=O)c21` [Compound 15, 2-(1-methyl-7-oxo-3-((4-(trifluoromethyl)phenyl)amino)-1,7-dihydro-6H-pyrazolo[4,3-d]pyrimidin-6-yl)-N-(2-(tetrahydro-2H-pyran-4-yl)propan-2-yl)acetamide], the EC50 on human SF-1 lay within 200 to 1000 nM; in test [1] (R2C cells, EdU incorporation) it was 1000 to 10000 nM.

`C[C@@H](NC(=O)Cn1cnc2c(Nc3ccc(C(F)(F)F)cc3)nn(C)c2c1=O)C1CCOCC1` [Compound 16, (R)-2-(1-methyl-7-oxo-3-((4-(trifluoromethyl)phenyl)amino)-1,7-dihydro-6H-pyrazolo[4,3-d]pyrimidin-6-yl)-N-(1-(tetrahydro-2H-pyran-4-yl)ethyl)acetamide]: the EC50 on human SF-1 was in the range of 200 to 1000 nM; in test [1] (R2C cells, EdU incorporation) it was 1000 to 10000 nM.

On to `C[C@H](NC(=O)Cn1cnc2c(Nc3ccc(C(F)(F)F)cc3)nn(C)c2c1=O)C1CCOCC1` [Compound 17, (S)-2-(1-methyl-7-oxo-3-((4-(trifluoromethyl)phenyl)amino)-1,7-dihydro-6H-pyrazolo[4,3-d]pyrimidin-6-yl)-N-(1-(tetrahydro-2H-pyran-4-yl)ethyl)acetamide], for which the EC50 is less than 200 nM on human SF-1 and 200 to 1000 nM in test [1] (R2C cells, EdU incorporation).

For the compound `Cc1cc(C(C)(C)S(C)(=O)=O)ccc1NC(=O)Cn1cnc2c(Nc3ccc(C(F)(F)F)cc3)nn(C)c2c1=O` [Compound 18, N-(2-methyl-4-(2-(methylsulfonyl)propan-2-yl)phenyl)-2-(1-methyl-7-oxo-3-((4-(trifluoromethyl)phenyl)amino)-1,7-dihydro-6H-pyrazolo[4,3-d]pyrimidin-6-yl)acetamide], the EC50 at human SF-1 is less than 200 nM; in test [1] (R2C cells, EdU incorporation) it was less than 200 nM.

Take `Cn1nc(Nc2ccc(C(F)(F)F)cc2)c2ncn(CC(=O)Nc3ccc(C(C)(C)C(=O)O)cc3)c(=O)c21` [Compound 19, 2-methyl-2-(4-(2-(1-methyl-7-oxo-3-((4-(trifluoromethyl)phenyl)amino)-1,7-dihydro-6H-pyrazolo[4,3-d]pyrimidin-6-yl)acetamido)phenyl)propanoic acid]: the EC50 at human SF-1 lay within 200 to 1000 nM; in test [1] (R2C cells, EdU incorporation), 200 to 1000 nM.

Take `Cn1nc(Nc2ccc(C(F)(F)F)cc2)c2ncn(CC(=O)Nc3ccc(OCC(C)(C)O)cc3)c(=O)c21` [Compound 20, N-(4-(2-hydroxy-2-methylpropoxy)phenyl)-2-(1-methyl-7-oxo-3-((4-(trifluoromethyl)phenyl)amino)-1,7-dihydro-6H-pyrazolo[4,3-d]pyrimidin-6-yl)acetamide]: the EC50 on human SF-1 was less than 200 nM; in test [1] (R2C cells, EdU incorporation) it was less than 200 nM.

In the case of `Cn1nc(Nc2ccc(C(F)(F)F)cc2)c2ncn(CC(=O)Nc3ccc(C(C)(C)C(N)=O)cc3)c(=O)c21` [Compound 21, 2-methyl-2-(4-(2-(1-methyl-7-oxo-3-((4-(trifluoromethyl)phenyl)amino)-1,7-dihydro-6H-pyrazolo[4,3-d]pyrimidin-6-yl)acetamido)phenyl)propanamide], the concentration for a half-maximal effect (EC50) on human SF-1 is less than 200 nM; in test [1] (R2C cells, EdU incorporation) it was less than 200 nM.

Take `C[C@H](O)CO[C@H]1CC[C@H](NC(=O)Cn2cnc3c(Nc4ccc(C(F)(F)F)cc4)nn(C)c3c2=O)CC1` [Compound 22, N-((1S,4r)-4-((S)-2-hydroxypropoxy)cyclohexyl)-2-(1-methyl-7-oxo-3-((4-(trifluoromethyl)phenyl)amino)-1,7-dihydro-6H-pyrazolo[4,3-d]pyrimidin-6-yl)acetamide]: the EC50 at human SF-1 is less than 200 nM; in test [1] (R2C cells, EdU incorporation), less than 200 nM.

As usually defined, the EC50 is the concentration that produces a half-maximal response.
